This is an account of results in ChEMBL document CHEMBL1126847, “Deoxygenated inositol 1,4,5-trisphosphate analogues and their interaction with metabolic enzymes. (1R,2R,4R)-cyclohexane-1,2,4-tris(methylenesulfonate): a potent selective 5-phosphatase inhibitor” (J Med Chem, 1993).

Assay [1] in a line: Tested for [Ca2+] release in 45 [Ca2+] -preloaded SH-SY5Y cells using saponin. Format: functional, cell-based. Particulars: Homo sapiens.
Assay [2] has as its target T1, Inositol polyphosphate-5-phosphatase A (Homo sapiens, UniProt Q14642).
T1 sequence (Q14642 whole entry): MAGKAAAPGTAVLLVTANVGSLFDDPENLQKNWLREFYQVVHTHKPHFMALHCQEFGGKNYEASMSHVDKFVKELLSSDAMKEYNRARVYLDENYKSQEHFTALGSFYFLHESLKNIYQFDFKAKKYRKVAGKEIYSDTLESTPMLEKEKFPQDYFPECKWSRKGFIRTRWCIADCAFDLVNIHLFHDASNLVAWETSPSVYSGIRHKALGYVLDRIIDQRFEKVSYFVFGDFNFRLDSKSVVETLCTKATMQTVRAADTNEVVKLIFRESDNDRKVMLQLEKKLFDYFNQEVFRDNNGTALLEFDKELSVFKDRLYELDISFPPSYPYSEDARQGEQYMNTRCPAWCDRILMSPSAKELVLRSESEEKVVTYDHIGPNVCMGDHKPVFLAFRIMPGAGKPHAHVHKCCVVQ
Nature of the assay: Tested for inhibition of 5-phosphatase isolated from human erythrocyte membrane (S substrate).

The nature of assay [3]: Tested for the ability to displace [3H]1,4,5-IP3 from the 1,4,5-IP3 specific binding site of membranes from the bovine adrenal cortices.
Assay [4] is described as follows: Inhibition of Inositol 1,4,5-trisphosphate 3-kinase from rat brain homogenate (r metabolically resistant).
Assay [5] has as its target T1, Inositol polyphosphate-5-phosphatase A. In words: Tested for inhibition of 5-phosphatase isolated from human erythrocyte membrane (R metabolically resistant).
The nature of assay [6]: (§1) Inhibition of Inositol 1,4,5-trisphosphate 3-kinase from rat brain homogenate (R metabolically resistant). It is filed as tissue-based.
A short description of assay [7]: Inhibition of Inositol 1,4,5-trisphosphate 3-kinase from rat brain homogenate (r-metabolically resistant).
The target in assay [8] is T1, Inositol polyphosphate-5-phosphatase A. Nature of the assay: Tested for inhibition of 5-phosphatase isolated from human erythrocyte membrane.
Assay [9] in a line: as §1.
The nature of assay [10]: Inhibition of Inositol 1,4,5-trisphosphate 3-kinase from rat brain homogenate (S substrate).

Where only a bound is given, the exact number is not on record here.

The EC50 is the concentration that produces a half-maximal response. Lower therefore signals greater potency. What is called Ki is a dissociation constant, usually derived from enzyme kinetics or from competition with a known ligand. A lower Ki goes with higher affinity. `O=P(O)(O)OC1CCC(OP(=O)(O)O)[C@H](OP(=O)(O)O)[C@@H]1O` (stereo partly specified) returned a half-maximal effective concentration (EC50) in assay [1] of 0.186 µM. Also, the results for the inhibition constant Ki in [2], in [3] and in assay [4] were 16.5 µM, 0.0396 µM and 19 µM, respectively.

As for `O=P(O)(O)Cc1ccc(CP(=O)(O)O)c(CP(=O)(O)O)c1`, the EC50 in [1] is greater than 100 µM. Moreover, the figures for the Ki in assay [5], in assay [3] and in [6] were 148 µM, greater than 100 µM and greater than 200 µM, respectively.

The molecule `O=P(O)(O)OC1[C@H](O)CC(OP(=O)(O)O)[C@H](OP(=O)(O)O)[C@@H]1O` (stereo partly specified) displayed an EC50 in [1] of 0.156 µM. The inhibitory constant (Ki) in assay [2] was 11.5 µM; in assay [3], 0.0234 µM; in assay [4], 25 µM.

As to `O=P(O)(O)OC1CCC(OP(=O)(O)O)[C@H](OP(=O)(O)O)C1` (stereo partly specified), the Ki in [7] was 36 µM; in assay [2], 81.4 µM; in assay [3], 3.95 µM. The concentration for a half-maximal effect (EC50) in assay [1] was greater than 10 µM.

For `O=P(O)(O)OCC1CCC(COP(=O)(O)O)[C@H](COP(=O)(O)O)C1` (stereo partly specified), in assay [1], the concentration giving a half-maximal response (EC50) is greater than 100 µM. The Ki is 144 µM in [5], greater than 100 µM in assay [3] and greater than 600 µM in assay [6].

As for `O=P(O)(O)CC1CCC(CP(=O)(O)O)[C@H](CP(=O)(O)O)C1` (stereo partly specified), the 50% effective concentration (EC50) in assay [1] was greater than 100 µM. In addition, the inhibition constant (Ki) in assay [5] was 535 µM; in assay [3] it was greater than 100 µM; in assay [6], greater than 600 µM.

`O=S(=O)(O)CC1CC[C@@H](CS(=O)(=O)O)C[C@H]1CS(=O)(=O)O` (stereo partly specified) had an EC50 in assay [1] greater than 100 µM. The Ki in assay [8] was 3.9 µM; in [3], greater than 100 µM; in [6], greater than 600 µM.

Take `O=S(=O)(O)CC1CC[C@H](CS(=O)(=O)O)C[C@H]1CS(=O)(=O)O` (stereo partly specified): the results for the Ki in assay [9], in assay [5] and in [3] were greater than 600 µM, greater than 1000 µM and greater than 100 µM, respectively. This molecule registered an EC50 in assay [1] greater than 100 µM.

`O=P(O)(O)O[C@@H]1[C@H](O)[C@H](O)[C@@H](OP(=O)(O)O)[C@H](OP(=O)(O)O)[C@H]1O` [INS(1,4,5)P3] registered a half-maximal effective concentration (EC50) in [1] of 0.0521 µM. Further, the inhibition constant Ki in [2] worked out at 15 µM; in [10] it was 0.85 µM; in assay [3], 0.0022 µM.
